# Source: patent US5484940A, “Substituted 3-indolyl-5-pyrazolone compounds” (priority 1994, dated 1996)
# What was measured:
# [1] = tested on: β-amyloid peptide production; assay: Cellular screen for inhibitors of β-amyloid production (ELISA, 293 751 SWE cells); type: cell-based, human; conditions: 2 h pretreatment + 2 h, normalized for cytotoxicity (MTT), concentration not given
# Experimental: (§1) This screening assay employed cells (K293=human kidney cell line) which were stably transfected with the gene for amyloid precursor protein 751 (APP751) containing the double mutation Lys651 Met652 to Asn651 Leu652 (APP751 numbering) in the manner described in International Patent Application Publication No. 94/10569^1 and Citron et al.^16. This mutation is commonly called the Swedish mutation and the cells, designated as "293 751 SWE", were plated in Coming 96-well plates at 1.5-2.5×10^4 cells per well in Dulbecco's minimal essential media plus 10% fetal bovine serum. Cell number is important in order to achieve β-amyloid ELISA results within the linear range of the assay (~0.2 to 2.5 ng per mL).
# Following overnight incubation at 37° C. in an incubator equilibrated with 10% carbon dioxide, media were removed and replaced with 200 μL of a substituted 3-indolyl-5-pyrazolone (drug) containing media per well for a two hour pretreatment period and cells were incubated as above.
# At the end of the pretreatment period, the media were again removed and replaced with fresh drag containing media as above and cells were incubated for an additional two hours. After treatment, plates were centrifuged in a Beckman GPR at 1200 rpm for five minutes at room temperature to pellet cellular debris from the conditioned media. From each well, 100 μL of conditioned media or appropriate dilutions thereof were transferred into an ELISA plate precoated with antibody 266 against amino acids 13-28 of β-amyloid peptide as described in International Patent Application Publication No. 94/10569^1 and stored at 4° C. overnight. An ELISA assay employing labelled antibody 6C6 against amino acids 1-16 of β-amyloid peptide was run the next day to measure the amount of β-amyloid peptide produced.
# The results of the β-amyloid peptide ELISA were fit to a standard curve and expressed as ng/mL β-amyloid peptide. […] All results are the mean and standard deviation of at least six replicate assays.
# rat cortical neurons = assay: Inhibition of toxicity of β-amyloid peptide to rat neuronal cells (alamarBlue); type: cell-based; conditions: 10 to 20 μM β-amyloid peptide, 2-3 days; on average where more than one duplicate experiment; compound concentration not stated
# Experimental: (§2) The purpose of this test is to determine the effect of 3-indolyl-5-pyrazolone compounds on the toxicity of β-amyloid peptide to neuronal cells.
# Primary rat cortical cultures were established from 18 day rat fetuses. Cortical tissue was dissociated by incubation in a trypsin/EDTA solution (0.05% trypsin+0.53 mM EDTA in HBSS; GIBCO Laboratories, Grand Island, N.Y., USA) for 20 minutes at 37° C. The trypsin was then inactivated by resuspending the cells in serum-containing medium (DMEM/FBS): Dulbecco's Modified Eagles' Medium (DMEM) containing 4.5 g/L glucose, 1 mM sodium pyruvate, 1 mM glutamine, 100 Units/mL penicillin, 100 μg/mL streptomycin, and supplemented with 10% heat-inactivated fetal bovine serum (GIBCO Laboratories, Grand Island, N.Y., USA). Cells were then pelleted by centrifugation and resuspended in a chemically-defined medium (DMEM/B27: DMEM containing B27 supplement; GIBCO Laboratories, Grand Island, N.Y., USA) in place of FBS. Polyethyleneimine (PEI; Sigma Chemical Company, St. Louis, Mo., USA)-coated 6.4 mm (96-well) dishes were timed once with DMEM/FBS, and then seeded at 0.75 to 1.25×10^5 cells per well in 0.1 mL DMEM/B27. Cultures were maintained in a H2 O-saturated incubator with an atmosphere of 90% air/10% CO2 at 37° C. Cell viability was visually assessed by phase contrast microscopy and quantified by measuring the reduction of alamarBlue™ (Alamar biosciences, Inc., Sacramento, Calif., USA) as described below. Serum replacement with B27 supplement yields nearly pure neuronal cultures as judged by immunocytochemistry for glial fibrillary acidic protein and neuron-specific enolase (Brewer, et al.^20)
# (§3) β-amyloid peptide stock solutions were prepared as 1 mM stocks in sterile, doubly distilled water immediately prior to addition to cultures. Rat cortical neurons were exposed to β-amyloid peptide by removing the culture medium and replacing it with DMEM/N2 (GIBCO Laboratories,Grand Island, N.Y., USA) containing 10 to 20 μM β-amyloid peptide. Human cortical neurons were exposed to test compound plus β-amyloid peptide by removing the culture medium and replacing it with MEM containing 50 μM β-amyloid peptide. Cultures were maintained for 2-3 days before neuronal survival was quantified using alamarBlue™.
# (§4) The alamarBlue™ assay incorporates a fluorometric/colorimetric metabolic indicator (Alamar Biosciences, Inc. Sacramento, Calif., USA). Viable cells convert alamarBlue™ from an oxidized (non-fluorescent, blue) form to a reduced (fluorescent, red) form. Assays were preformed by replacing the culture media with a 10% alamarBlue™ solution in DMEM (rat cortical cultures) or MEM (human cortical cultures).
# 293 751 SWE cells = assay: Cytotoxicity (MTT) in 293 751 SWE cells; type: cell-based, human; conditions: concentration not given
# Experimental: as §1
# Cytotoxic effects of the compounds were measured by a modification of the method of Hansen, et al.^17. To the cells remaining in the tissue culture plate was added 25 μL of a 3,(4,5-dimethylthiazol-2-yl)2,5-diphenyltetrazolium bromide (MTT) stock solution (5 mg/mL) to a final concentration of 1 mg/mL. Cells were incubated at 37° C. for one hour, and cellular activity was stopped by the addition of an equal volume of MTT lysis buffer (20% w/v sodium dodecylsulfate in 50% dimethylformamide, pH 4.7). Complete extraction was achieved by overnight shaking at room temperature. The difference in the OD562nm and the OD650nm was measured in a Molecular Device's UVmax microplate reader as an indicator of the cellular viability.
# human cortical neurons = assay: Inhibition of toxicity of β-amyloid peptide to human neuronal cells (alamarBlue); type: cell-based; conditions: 50 μM β-amyloid peptide, 2-3 days; on average where more than one duplicate experiment; compound concentration not stated
# Experimental: as §2
# Primary Human Cortical Cell Culture
# Primary human cortical cultures were prepared using a modification of the procedure described by Seubert, et al.^21 Following filtration through Nitex nylon screens, cortical tissue was resuspended in a trypsin/EDTA solution (0.05% trypsin+0.53 mM EDTA in HBSS; GIBCO Laboratories, Grand Island, N.Y., USA) and kept at 37° C. for 20 minutes. The trypsin was then inactivated by resuspending the cells in serum-containing medium (MEM/FBS: Modified Eagles' Medium (MEM) containing 1% glucose, 1 mM sodium pyruvate, 1 mM glutamine, and supplemented with 10% fetal bovine serum (GIBCO). Cells were then pelleted by centrifugation and resuspended in a chemically-defined medium (MEM/B27: MEM containing B27 supplement in place of FBS; GIBCO). Polyethyleneimine (PEI; Sigma Chemical Company, St. Louis, Mo., USA)-coated 6.4 mm (96-well) dishes were rinsed once with MEM/FBS, and then seeded at 0.75 to 1.25×10^5 cells per well in 0.1 mL MEM/B27. Cultures were maintained in a H2 O-saturated incubator with an atmosphere of 95% air/5% CO 2 at 37° C. The culture medium was exchanged twice weekly. Cell viability was visually assessed by phase contrast microscopy and quantified by measuring the reduction of alamarBlue™ (Alamar Biosciences, Inc., Sacramento, Calif., USA).
# as §3, §4
Compound,reduction of β-amyloid peptide production as compared to control [1],inhibition of the toxicity of β-amyloid peptide to rat neuronal cells (rat cortical neurons),cytotoxic effect on the 293 751 SWE cells (293 751 SWE cells),inhibition of the toxicity of β-amyloid peptide to human neuronal cells (human cortical neurons)
"COc1ccc2c(c1)c(CC1=NN(c3cccc([N+](=O)[O-])c3)C(=O)C1)c(C)n2C(=O)c1ccc(Cl)cc1 [Example 30, 3-[1-(4-chlorobenzoyl)-5-methoxy-2-methyl-3-indolylmethyl]-1-(3-nitrophenyl)-5-pyrazolone]",at least 20%,< 10%,did not have a significant cytotoxic effect,at least 25%
"COc1ccc2c(c1)c(CC1=NN(c3cccc(N)c3)C(=O)C1)c(C)n2C(=O)c1ccc(Cl)cc1 [Example 40, 3-[1-(4-chlorobenzoyl)-5-methoxy-2-methyl-3-indolylmethyl]-1-(3-aminophenyl)-5-pyrazolone]",< 20%,–,–,at least 25%
"COc1ccc2c(c1)c(CC1=NN(C3CCCCC3)C(=O)C1=Cc1ccccc1)c(C)n2C(=O)c1ccc(Cl)cc1 [Example 45, 3-[1-(4-chlorobenzoyl)-5-methoxy-2-methyl-3-indolylmethyl]-1-cyclohexyl-4-benzylidene-5-pyrazolone]",< 20%,–,–,< 25%
"COc1ccc2c(c1)c(CC1=NN(c3ccc(C)cc3)C(=O)C1)c(C)n2C(=O)c1ccc(Cl)cc1 [Example 34, 3-[1-(4-chlorobenzoyl)-5-methoxy-2-methyl-3-indolylmethyl]-1-(4-methylphenyl)-5-pyrazolone]",at least 20%,at least 10%,did not have a significant cytotoxic effect,at least 25%
"COc1ccc2c(c1)c(CC1=NNC(=O)C1)c(C)n2C(=O)c1ccc(Cl)cc1 [Example 15, 3-[1-(4-chlorobenzoyl)-5-methoxy-2-methyl-3-indolylmethyl]-5-pyrazolone]",< 20%,< 10%,–,at least 25%
"COc1ccc2c(c1)c(CC1=NN(C3CCC3)C(=O)C1)c(C)n2C(=O)c1ccc(Cl)cc1 [Example 10, 3-[1-(4-chlorobenzoyl)-5-methoxy-2-methyl-3-indolylmethyl]-1-cyclobutyl-5-pyrazolone]",–,–,–,at least 25%
"O=C1CC(Cc2cn(C(=O)c3ccc(Cl)cc3)c3ccccc23)=NN1C1CCCCC1 [Example 19, 3-[1-(4-chlorobenzoyl)-3-indolylmethyl]-1-cyclohexyl-5-pyrazolone]",at least 20%,–,did not have a significant cytotoxic effect,at least 25%
"O=C1CC(CCc2c[nH]c3ccccc23)=NN1C1CCCCC1 [D, 3-[3-indolylethyl]-1-cyclohexyl-5-pyrazolone]",–,< 10%,–,at least 25%
"COc1ccc2c(c1)c(CC1=NN(c3cccc(C)c3)C(=O)C1)c(C)n2C(=O)c1ccc(Cl)cc1 [Example 31, 3-[1-(4-chlorobenzoyl)-5-methoxy-2-methyl-3-indolylmethyl]-1-(3-methylphenyl)-5-pyrazolone]",at least 20%,–,did not have a significant cytotoxic effect,at least 25%
"O=C1CC(Cc2cn(C(=O)c3ccc(Cl)cc3)c3ccccc23)=NN1 [A, 3-[1-(4-chlorobenzoyl)-3-indolylmethyl]-5-pyrazolone]",–,at least 10%,–,at least 25%
"O=C1CC(Cc2c[nH]c3ccccc23)=NN1C1CCCCC1 [Example 18, 3-(3-indolylmethyl)-1-cyclohexyl-5-pyrazolone]",–,< 10%,–,at least 25%
COc1ccc2c(c1)c(CC1=NN(c3ccccc3C)C(=O)C1)c(C)n2C(=O)c1ccc(Cl)cc1 [E],–,at least 10%,–,at least 25%
"COc1ccc2c(c1)c(CC1=NN(c3cccc(F)c3)C(=O)C1)c(C)n2C(=O)c1ccc(Cl)cc1 [Example 32, 3-[1-(4-chlorobenzoyl)-5-methoxy-2-methyl-3-indolylmethyl]-1-(3-fluorophenyl)-5-pyrazolone]",at least 20%,–,did not have a significant cytotoxic effect,at least 25%
"COc1ccc2[nH]c(C)c(CC3=NN(C4CCCCC4)C(=O)C3)c2c1 [Example 17, 3-(5-methoxy-2-methyl-3-indolylmethyl)-1-cyclohexyl-5-pyrazolone]",at least 20%,–,did not have a significant cytotoxic effect,–
"COc1ccc(C(=O)n2c(C)c(CC3=NN(c4cccc(C(F)(F)F)c4)C(=O)C3)c3cc(OC)ccc32)cc1 [Example 58, 3-[1-(4-methoxybenzoyl)-5-methoxy-2-methyl-3-indolylmethyl]-1-(3-trifluoromethylphenyl)-5-pyrazolone]",at least 20%,–,did not have a significant cytotoxic effect,–
